The target of this test is human IRAK4 (Homo sapiens (Human), UniProt Q9NWZ3). The experiment in a line: IRAK4 kinase inhibition, Transcreener fluorescence polarization ADP assay. Type of test: biochemical. Particulars: recombinant full-length His6-IRAK4; 125 uM ATP; 90 min; Ki computed using ATP Km 642 uM. The method, then:
Compounds were assayed for inhibition of human IRAK4 and IRAK1 catalytic activity using recombinant enzyme produced from insect cells. Full-length IRAK4 protein, carrying an N-terminal His6-Tag, was obtained from Life Technologies (Carlsbad, Calif., USA). The IRAK1 construct was produced internally and was comprised of IRAK1 residues Arg194 to Ser712, preceded by an NH2-terminal His6 tag and the coding sequence for glutathione-S-transferase.
human IRAK4, sequence (Q9NWZ3 whole entry, the tested form may be a part): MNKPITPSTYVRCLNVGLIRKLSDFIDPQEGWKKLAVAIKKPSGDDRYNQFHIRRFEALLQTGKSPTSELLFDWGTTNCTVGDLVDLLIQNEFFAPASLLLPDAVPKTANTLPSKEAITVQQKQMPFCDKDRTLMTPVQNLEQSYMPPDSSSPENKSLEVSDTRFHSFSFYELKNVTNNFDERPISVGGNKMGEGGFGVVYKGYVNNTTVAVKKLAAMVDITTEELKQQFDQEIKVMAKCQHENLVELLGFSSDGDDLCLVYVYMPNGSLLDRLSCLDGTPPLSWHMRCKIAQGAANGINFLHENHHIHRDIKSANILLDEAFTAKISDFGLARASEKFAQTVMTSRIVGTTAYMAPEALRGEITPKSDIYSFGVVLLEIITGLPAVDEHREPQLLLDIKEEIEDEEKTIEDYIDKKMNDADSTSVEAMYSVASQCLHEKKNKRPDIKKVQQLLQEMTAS
For the compound `CC1(C)Cc2cc(NC(=O)c3cnn4ccc(C[C@H]5CCNC5=O)nc34)c(C3CC3)cc2O1` [Example 514, (R)—N-(6-cyclopropyl-2,2-dimethyl-2,3-dihydrobenzofuran-5-yl)-5-((2-oxopyrrolidin-3-yl)methyl)pyrazolo[1,5-a]pyrimidine-3-carboxamide], the Ki was determined as 810 nM.

For `CC1(C)Cc2cc(NC(=O)c3cnn4ccc(C[C@@H]5CCNC5=O)nc34)c(C3CC3)cc2O1` [Example 515, (S)—N-(6-cyclopropyl-2,2-dimethyl-2,3-dihydrobenzofuran-5-yl)-5-((2-oxopyrrolidin-3-yl)methyl)pyrazolo[1,5-a]pyrimidine-3-carboxamide], the Ki stood at 420 nM.

On to `CP(C)(=O)c1ccc(NC(=O)c2cnn3cccnc23)c(N2CCOCC2)c1` [Example 518, N-(4-dimethylphosphoryl-2-morpholino-phenyl)pyrazolo[1,5-a]pyrimidine-3-carboxamide], for which the inhibition constant Ki came to 130 nM.

In the case of `C[C@@]1(CC#N)COc2cc(N3CCOCC3)c(NC(=O)c3cnn4cccnc34)cc2C1` [Example 519, N-[(3R)-3-(cyanomethyl)-3-methyl-7-morpholino-chroman-6-yl]pyrazolo[1,5-a]pyrimidine-3-carboxamide], the Ki stood at 39 nM.

For `C[C@]1(CC#N)COc2cc(N3CCOCC3)c(NC(=O)c3cnn4cccnc34)cc2C1` [Example 520, N-[(3S)-3-(cyanomethyl)-3-methyl-7-morpholino-chroman-6-yl]pyrazolo[1,5-a]pyrimidine-3-carboxamide], the Ki worked out at 1.1 nM.

Regarding `CC(C)(O)[C@H](F)CN1Cc2cc(NC(=O)c3cnn4cccnc34)c(Cl)cc2C1=O` [Example 521, N-[6-chloro-2-[(2R)-2-fluoro-3-hydroxy-3-methyl-butyl]-1-oxo-isoindolin-5-yl]pyrazolo[1,5-a]pyrimidine-3-carboxamide], the Ki stood at 4 nM.

In the case of `CC(C)(O)[C@@]1(C)Cc2cc(NC(=O)c3cnn4cccnc34)c(N3CCN(Cc4c[nH]cn4)CC3)cc2O1` [Example 522, N-[(2R)-2-(1-Hydroxy-1-methyl-ethyl)-6-[4-(1H-imidazol-4-ylmethyl)piperazin-1-yl]-2-methyl-3H-benzofuran-5-yl]pyrazolo[1,5-a]pyrimidine-3-carboxamide], the Ki worked out at 3.4 nM.

In the case of `CC(C)(O)[C@]1(C)Cc2cc(NC(=O)c3cnn4cccnc34)c(N3CCN(Cc4c[nH]cn4)CC3)cc2O1` [Example 523, N-[(2S)-2-(1-hydroxy-1-methyl-ethyl)-6-[4-(1H-imidazol-4-ylmethyl)piperazin-1-yl]-2-methyl-3H-benzofuran-5-yl]pyrazolo[1,5-a]pyrimidine-3-carboxamide], the Ki was determined as 4.4 nM.

Take `CC(C)(O)[C@]1(C)Cc2cc(NC(=O)c3cnn4cccnc34)c(N3CCN(CC(N)=O)CC3)cc2O1` [Example 524, N-[(2S)-6-[4-(2-amino-2-oxo-ethyl)piperazin-1-yl]-2-(1-hydroxy-1-methyl-ethyl)-2-methyl-3H-benzofuran-5-yl]pyrazolo[1,5-a]pyrimidine-3-carboxamide]: the Ki turned out to be 4.1 nM.

Regarding `CC(C)(O)[C@@]1(C)Cc2cc(NC(=O)c3cnn4cccnc34)c(N3CCN(CC(N)=O)CC3)cc2O1` [Example 525, N-[(2R)-6-[4-(2-amino-2-oxo-ethyl)piperazin-1-yl]-2-(1-hydroxy-1-methyl-ethyl)-2-methyl-3H-benzofuran-5-yl]pyrazolo[1,5-a]pyrimidine-3-carboxamide], the Ki came to 4.2 nM.

Take `CC1(C)Cc2cc(NC(=O)c3cnn4cccnc34)c(N3CCC(C(N)=O)CC3)cc2O1` [Example 531, N-[6-(4-carbamoyl-1-piperidyl)-2,2-dimethyl-3H-benzofuran-5-yl]pyrazolo[1,5-a]pyrimidine-3-carboxamide]: the Ki was found to be 3.2 nM.

As to `CN(C)C1CCN(c2cc3c(cc2NC(=O)c2cnn4cccnc24)CC(C)(C)O3)CC1` [Example 532, N-[6-[4-(dimethylamino)-1-piperidyl]-2,2-dimethyl-3H-benzofuran-5-yl]pyrazolo[1,5-a]pyrimidine-3-carboxamide], the Ki was 7.2 nM.

Consider `CC1(C)Cc2cc(NC(=O)c3cnn4cccnc34)c(N3CCNCC3)cc2O1` [Example 533, N-(2,2-dimethyl-6-piperazin-1-yl-3H-benzofuran-5-yl)pyrazolo[1,5-a]pyrimidine-3-carboxamide], for which the Ki stood at 13 nM.

Take `CC1(C)Cc2cc(NC(=O)c3cnn4cccnc34)c(N3CCC(F)(C(N)=O)CC3)cc2O1` [Example 534, N-[6-(4-carbamoyl-4-fluoro-1-piperidyl)-2,2-dimethyl-3H-benzofuran-5-yl]pyrazolo[1,5-a]pyrimidine-3-carboxamide]: the Ki was determined as 2 nM.

On to `CC1(CC(N)=O)CCN(c2cc3c(cc2NC(=O)c2cnn4cccnc24)CC(C)(C)O3)CC1` [Example 535, N-[6-[4-(2-Amino-2-oxo-ethyl)-4-methyl-1-piperidyl]-2,2-dimethyl-3H-benzofuran-5-yl]pyrazolo[1,5-a]pyrimidine-3-carboxamide], for which the Ki is 3.1 nM.

For the compound `CC1(C)Cc2cc(NC(=O)c3cnn4cccnc34)c(N3CCC(O)(CC(N)=O)CC3)cc2O1` [Example 536, N-[6-[4-(2-amino-2-oxo-ethyl)-4-hydroxy-1-piperidyl]-2,2-dimethyl-3H-benzofuran-5-yl]pyrazolo[1,5-a]pyrimidine-3-carboxamide], the Ki came out at 3.1 nM.

For the compound `CN(C)c1cc2c(cc1NC(=O)c1cnn3cccnc13)CC(C)(C)O2` [Example 537, N-(6-(dimethylamino)-2,2-dimethyl-2,3-dihydrobenzofuran-5-yl)pyrazolo[1,5-a]pyrimidine-3-carboxamide], the Ki stood at 12 nM.

On to `Cn1cnc(COc2cc3c(cc2NC(=O)c2cnn4cccnc24)CC(C)(C)O3)c1` [Example 538, N-(2,2-dimethyl-6-((1-methyl-1H-imidazol-4-yl)methoxy)-2,3-dihydrobenzofuran-5-yl)pyrazolo[1,5-a]pyrimidine-3-carboxamide], for which the Ki was 220 nM.

On to `CC1(C)Cc2cc(NC(=O)c3cnn4cccnc34)c(OCc3c[nH]cn3)cc2O1` [Example 539, N-[6-(1H-Imidazol-4-ylmethoxy)-2,2-dimethyl-3H-benzofuran-5-yl]pyrazolo[1,5-a]pyrimidine-3-carboxamide], for which the Ki turned out to be 33 nM.

With `CC1(C)Cc2cc(NC(=O)c3cnn4cccnc34)c(OC[C@H]3CCC(=O)N3)cc2O1` [Example 540, N-[2,2-dimethyl-6-[[(2R)-5-oxopyrrolidin-2-yl]methoxy]-3H-benzofuran-5-yl]pyrazolo[1,5-a]pyrimidine-3-carboxamide], the Ki was 74 nM.

In the case of `CC1(C)Cc2cc(NC(=O)c3cnn4cccnc34)c(OC[C@@H]3CCC(=O)N3)cc2O1` [Example 541, N-[2,2-dimethyl-6-[[(2S)-5-oxopyrrolidin-2-yl]methoxy]-3H-benzofuran-5-yl]pyrazolo[1,5-a]pyrimidine-3-carboxamide], the Ki stood at 190 nM.

Turning to `Cc1cc(COc2cc3c(cc2NC(=O)c2cnn4cccnc24)CC(C)(C)O3)n[nH]1` [Example 542, N-[2,2-Dimethyl-6-[(5-methyl-1H-pyrazol-3-yl)methoxy]-3H-benzofuran-5-yl]pyrazolo[1,5-a]pyrimidine-3-carboxamide], the Ki came out at 59 nM.

The values are drawn from US10988478B1, “Pyrazolo[1,5a]pyrimidine derivatives as IRAK4 modulators” (Genentech, Inc., priority 2015, dated 2021).
